Converted amounts (≈) assume the structure as drawn.

The subject of this experiment is V79. Nature of the experiment: Cytotoxicity against Chinese hamster V79 cells. The format is cell-based. The settings on record: Cricetulus griseus.

On to `C=C1[C@@H](O)C[C@H]2C(C)(C)CCC[C@]2(C)[C@H]1/C=C/c1ccoc1` [CORONARIN A], for which the IC50 turned out to be 1.65 mg/L (≈ 5.49 µM).

Values taken from ChEMBL document CHEMBL1151312, “A concise conversion of (-)-sclareol into (+)-coronarin E and (-)-7-epi-coronarin A” (J Nat Prod, 1998).
